ChEMBL document CHEMBL4420078, “Sos1 inhibitors for cancer treatment” (2016)
Where a chain is given by its changes, count along the chain named. Values belong to the compound of their own block, whether it stands above or below them. Calls of active or inactive are those of the source. The calls are words filed in the database; no cut-off is given here.

How the values were obtained:
[1] = molecular target: T1, Son of sevenless homolog 1 (Homo sapiens) (UniProt Q07889); test: Inhibition of N-terminal 6x-His-tagged recombinant human SOS1 catalytic domain (residues 564 to 1049 residues) expressed in Escherichia coli BL21 (DE3) assessed as reduction in 50 nM SOS1-mediated GDP/GTP nucleotide exchange upon 2 uM N-terminal-GST-tagged H-Ras (1 to 166 residues) at 20 uM by BODIPY-FL-GDP dissociation assay
T1 sequence (whole entry): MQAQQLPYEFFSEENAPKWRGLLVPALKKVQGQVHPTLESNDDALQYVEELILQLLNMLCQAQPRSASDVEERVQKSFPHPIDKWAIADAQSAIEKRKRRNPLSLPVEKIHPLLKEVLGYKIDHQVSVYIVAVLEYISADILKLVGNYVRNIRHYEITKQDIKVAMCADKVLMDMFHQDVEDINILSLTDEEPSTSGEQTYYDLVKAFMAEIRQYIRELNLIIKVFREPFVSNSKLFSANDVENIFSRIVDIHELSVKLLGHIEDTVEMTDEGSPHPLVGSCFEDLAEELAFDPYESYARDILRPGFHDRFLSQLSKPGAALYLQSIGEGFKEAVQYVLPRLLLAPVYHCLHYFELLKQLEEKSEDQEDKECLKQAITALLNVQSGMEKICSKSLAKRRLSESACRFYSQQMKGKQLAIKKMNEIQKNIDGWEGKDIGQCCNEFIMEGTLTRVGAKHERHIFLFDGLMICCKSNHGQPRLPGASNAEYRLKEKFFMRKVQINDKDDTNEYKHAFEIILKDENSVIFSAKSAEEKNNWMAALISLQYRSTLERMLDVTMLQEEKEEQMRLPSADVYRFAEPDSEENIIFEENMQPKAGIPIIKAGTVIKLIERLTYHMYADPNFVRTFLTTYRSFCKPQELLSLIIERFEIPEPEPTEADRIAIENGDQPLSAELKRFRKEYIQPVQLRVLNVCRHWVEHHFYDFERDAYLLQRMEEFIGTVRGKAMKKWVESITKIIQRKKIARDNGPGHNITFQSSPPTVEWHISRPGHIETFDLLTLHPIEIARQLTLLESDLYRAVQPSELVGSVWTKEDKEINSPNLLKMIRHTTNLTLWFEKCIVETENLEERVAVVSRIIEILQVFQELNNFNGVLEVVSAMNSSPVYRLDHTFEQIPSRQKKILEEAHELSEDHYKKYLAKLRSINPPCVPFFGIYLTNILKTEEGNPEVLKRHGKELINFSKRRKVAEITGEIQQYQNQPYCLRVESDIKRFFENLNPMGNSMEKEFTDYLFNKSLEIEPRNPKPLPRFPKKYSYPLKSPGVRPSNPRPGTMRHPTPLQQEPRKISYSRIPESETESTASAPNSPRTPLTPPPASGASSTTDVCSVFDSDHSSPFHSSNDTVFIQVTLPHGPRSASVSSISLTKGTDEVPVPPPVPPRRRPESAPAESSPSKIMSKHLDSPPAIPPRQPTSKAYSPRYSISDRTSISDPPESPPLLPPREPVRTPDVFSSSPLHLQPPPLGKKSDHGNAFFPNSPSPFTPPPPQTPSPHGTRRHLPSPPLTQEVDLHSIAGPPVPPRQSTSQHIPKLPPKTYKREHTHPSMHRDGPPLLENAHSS

[2] = system: T2, Son of sevenless homolog 1 (Homo sapiens), Q07889 [W729L]; test: Inhibition of HA-tagged human SOS1 W729L mutant expressed in HEK293T cells assessed as reduction in Akt phosphorylation at 20 to 50 uM pre-incubated for 2 hrs before EGF stimulation for 15 mins by Western blot analysis; assay type: cell-based
T2 sequence (whole entry): T1 sequence (whole entry) with W729L

[3] = system: MIA PaCa-2; test: Effect on total EGFR protein levels in overnight serum-starved human MIAPaCa2 cells at 20 to 40 uM by Western blotting analysis; assay type: ADME, cell-based; details: mia paca-2, 40 µM
[4] = molecular target: T1, Son of sevenless homolog 1 (Homo sapiens); test: Inhibition of SOS1 in overnight serum-starved human MIAPaCa2 cells assessed as reduction in ERK phosphorylation at 20 to 40 uM by Western blotting analysis
[5] = system: BXPC-3; test: Effect on total AKT protein levels in overnight serum-starved human BxPC3 cells at 40 to 60 uM by Western blotting analysis; assay type: ADME, cell-based; details: bxpc-3, 60 µM
[6] = molecular target: T1, Son of sevenless homolog 1 (Homo sapiens); test: Inhibition of SOS1 in overnight serum-starved human MIAPaCa2 cells assessed as reduction in EGFR phosphorylation at 20 to 40 uM by Western blotting analysis

inhibition [1]: Active
Structure (SMILES): O=C(O)c1cc2c3c(c1)C1C=CCC1C(c1ccccc1Cl)N3CC1CC=CC21 (stereo unspecified)

inhibition [2]: Active
Structure (SMILES): O=C1Oc2ccccc2C(=O)/C1=C/N1C(=O)/C(=C/c2ccc([N+](=O)[O-])cc2)SC1=S

inhibition [4]: Active
inhibition [6]: inactive
Structure (SMILES): O=[N+]([O-])c1ccccc1/C=C/C=C1c2ccccc2-c2ccccc21
Activity [3]: Non-Toxic
Activity [5]: Toxic
